The source of these data is ChEMBL document CHEMBL5647694, “Novel orally bioavailable EZH1/2 dual inhibitors with greater antitumor efficacy than an EZH2 selective inhibitor” (Cancer Sci, 2017).

SMILES strings stand for the structures.

The target in assay [1] is Citron Rho-interacting kinase (Homo sapiens) (UniProt O14578). The assay is described as follows: Inhibition of N-terminal GST-fused human CRIK catalytic domain (1 to 449 residues) expressed in baculovirus expression system using Histone H3 peptide as substrate at 1 uM in presence of ATP by Mobility shift assay.
The target in assay [2] is Platelet-derived growth factor receptor beta (Homo sapiens) (UniProt P09619). The assay is described as follows: Inhibition of N-terminal GST-tagged human PDGFR-beta cytoplasmic domain (557 to 1106 residues) expressed in baculovirus-infected Sf21 cells using CSKtide as substrate at 1 uM in presence of ATP by Mobility shift assay.
Assay [3] has as its target Tyrosine-protein kinase HCK (Homo sapiens) (UniProt P08631). The assay is described as follows: Inhibition of N-terminal GST-fused truncated human HCK (25 to 526 residues) expressed in baculovirus-infected Sf21 cells using Srctide as substrate at 1 uM in presence of ATP by Mobility shift assay.
Assay [4] addresses Ribosomal protein S6 kinase alpha-5 (Homo sapiens) (UniProt O75582). The assay is described as follows: Inhibition of N-terminal GST-fused full length human MSK1 (1 to 802 residues) expressed in baculovirus expression system using Crosstide as substrate at 1 uM in presence of ATP by Mobility shift assay.
For assay [5], the target named is Tyrosine-protein kinase ZAP-70 (Homo sapiens) (UniProt P43403). The assay is described as follows: Inhibition of N-terminal GST-tagged full length human ZAP70 (1 to 619 residues) expressed in baculovirus-infected Sf21 cells using Blk/Lyntide as substrate at 1 uM in presence of ATP by Mobility shift assay.
In assay [6] the target is Receptor tyrosine-protein kinase erbB-4 (Homo sapiens) (UniProt Q15303). The assay is described as follows: Inhibition of N-terminal GST-fused human HER4 cytoplasmic domain (676 to 1308 residues) expressed in baculovirus infected Sf21 cells using Srctide as substrate at 1 uM in presence of ATP by Mobility shift assay.
The target of assay [7] is MAP kinase-interacting serine/threonine-protein kinase 1 (Homo sapiens) (UniProt Q9BUB5). The assay is described as follows: Inhibition of N-terminal GST-fused full length human MNK1 (1 to 424 residues) expressed in baculovirus expression system using RS peptide as substrate at 1 uM in presence of ATP by Mobility shift assay.
In assay [8] the target is Protein-tyrosine kinase 2-beta (Homo sapiens) (UniProt Q14289). The assay is described as follows: Inhibition of N-terminal GST-tagged full length human PYK2 (1 to 967 residues) expressed in baculovirus-infected Sf21 cells using Blk/Lyntide as substrate at 1 uM in presence of ATP by Mobility shift assay.
The target of assay [9] is CDK9/cyclin T1 (Homo sapiens) (UniProt O60563+P50750). The assay is described as follows: Inhibition of N-terminal GST-fused full length human CDK9 (1 to 372 residues)/human His-CyclinT1 (1 to 726 residues) expressed in baculovirus expression system using CDK9 substrate at 1 uM in presence of ATP by Mobility shift assay.
Assay [10] deals with SRSF protein kinase 2 (Homo sapiens) (UniProt P78362). The assay is described as follows: Inhibition of N-terminal GST-fused full length human SRPK2 (1 to 688 residues) expressed in baculovirus expression system using DYRKtide-F as substrate at 1 uM in presence of ATP by Mobility shift assay.
Assay [11] concerns the target Protein kinase C alpha type (Homo sapiens) (UniProt P17252). The assay is described as follows: Inhibition of N-terminal GST-fused human full length PKC-alpha (1 to 672 residues ) expressed in baculovirus expression system using PKC peptide as substrate at 1 uM in presence of ATP by Mobility shift assay.
Assay [12] deals with Macrophage-stimulating protein receptor (Homo sapiens) (UniProt Q04912). The assay is described as follows: Inhibition of N-terminal GST-tagged human RON cytoplasmic domain (979 to 1400 residues) expressed in baculovirus-infected Sf21 cells using Srctide as substrate at 1 uM in presence of ATP by Mobility shift assay.
For assay [13], the target named is Tyrosine-protein kinase ITK/TSK (Homo sapiens) (UniProt Q08881). The assay is described as follows: Inhibition of N-terminal GST-fused full length human ITK (2 to 620 residues) expressed in baculovirus-infected Sf21 cells using Srctide as substrate at 1 uM in presence of ATP by Mobility shift assay.
Assay [14] addresses Tyrosine-protein kinase receptor TYRO3 (Homo sapiens) (UniProt Q06418). The assay is described as follows: Inhibition of N-terminal GST-tagged human TYRO3 cytoplasmic domain (453 to 890 residues) expressed in baculovirus-infected Sf21 cells using CSKtide as substrate at 1 uM in presence of ATP by Mobility shift assay.
In assay [15] the target is Casein kinase I isoform epsilon (Homo sapiens) (UniProt P49674). The assay is described as follows: Inhibition of N-terminal GST-fused human CK1-epsilon catalytic domain (1 to 348 residues) expressed in baculovirus expression system using CKtide as substrate at 1 uM in presence of ATP by Mobility shift assay.
In assay [16] the target is Serine/threonine-protein kinase SIK2 (Homo sapiens) (UniProt Q9H0K1). The assay is described as follows: Inhibition of N-terminal GST-fused full length human QIK (1 to 926 residues) expressed in baculovirus expression system using AMARA peptide as substrate at 1 uM in presence of ATP by Mobility shift assay.
Assay [17] addresses Platelet-derived growth factor receptor alpha (Homo sapiens) (UniProt P16234). The assay is described as follows: Inhibition of N-terminal GST-tagged human PDGFR-alpha cytoplasmic domain (550 to 1089 residues) expressed in baculovirus-infected Sf21 cells using CSKtide as substrate at 1 uM in presence of ATP by Mobility shift assay.
Assay [18] concerns the target Ephrin type-A receptor 8 (Homo sapiens) (UniProt P29322). The assay is described as follows: Inhibition of N-terminal GST-fused human EPHA8 catalytic domain (571 to 924 residues) expressed in baculovirus-infected Sf21 cells using Blk/Lyntide as substrate at 1 uM in presence of ATP by Mobility shift assay.
In assay [19] the target is Mitogen-activated protein kinase kinase kinase kinase 2 (Homo sapiens) (UniProt Q12851). The assay is described as follows: Inhibition of N-terminal GST-fused full length human MAP4K2 (1 to 820 residues) expressed in baculovirus expression system using S6K2 peptide as substrate at 1 uM in presence of ATP by Mobility shift assay.
Assay [20] addresses Ribosomal protein S6 kinase alpha-1 (Homo sapiens) (UniProt Q15418). The assay is described as follows: Inhibition of N-terminal GST-fused human full length RSK1 (1 to 735 residues) expressed in baculovirus expression system using S6K peptide(N-FL) as substrate at 1 uM in presence of ATP by Mobility shift assay.
The target in assay [21] is Serine/threonine-protein kinase Nek4 (Homo sapiens) (UniProt P51957). The assay is described as follows: Inhibition of N-terminal GST-tagged full length human NEK4 (1 to 841 residues) expressed in baculovirus expression system using GS peptide as substrate at 1 uM in presence of ATP by Mobility shift assay.
Assay [22] has as its target Fibroblast growth factor receptor 1 (Homo sapiens) (UniProt P11362). The assay is described as follows: Inhibition of N-terminal GST-fused human FGFR1 cytoplasmic domain (398 to 822 residues ) expressed in baculovirus-infected Sf21 cells using CSKtide as substrate at 1 uM in presence of ATP by Mobility shift assay.

Chain of Serine/threonine-protein kinase SIK2 (Homo sapiens) (Q9H0K1 whole entry, looked up, the tested form may be a part): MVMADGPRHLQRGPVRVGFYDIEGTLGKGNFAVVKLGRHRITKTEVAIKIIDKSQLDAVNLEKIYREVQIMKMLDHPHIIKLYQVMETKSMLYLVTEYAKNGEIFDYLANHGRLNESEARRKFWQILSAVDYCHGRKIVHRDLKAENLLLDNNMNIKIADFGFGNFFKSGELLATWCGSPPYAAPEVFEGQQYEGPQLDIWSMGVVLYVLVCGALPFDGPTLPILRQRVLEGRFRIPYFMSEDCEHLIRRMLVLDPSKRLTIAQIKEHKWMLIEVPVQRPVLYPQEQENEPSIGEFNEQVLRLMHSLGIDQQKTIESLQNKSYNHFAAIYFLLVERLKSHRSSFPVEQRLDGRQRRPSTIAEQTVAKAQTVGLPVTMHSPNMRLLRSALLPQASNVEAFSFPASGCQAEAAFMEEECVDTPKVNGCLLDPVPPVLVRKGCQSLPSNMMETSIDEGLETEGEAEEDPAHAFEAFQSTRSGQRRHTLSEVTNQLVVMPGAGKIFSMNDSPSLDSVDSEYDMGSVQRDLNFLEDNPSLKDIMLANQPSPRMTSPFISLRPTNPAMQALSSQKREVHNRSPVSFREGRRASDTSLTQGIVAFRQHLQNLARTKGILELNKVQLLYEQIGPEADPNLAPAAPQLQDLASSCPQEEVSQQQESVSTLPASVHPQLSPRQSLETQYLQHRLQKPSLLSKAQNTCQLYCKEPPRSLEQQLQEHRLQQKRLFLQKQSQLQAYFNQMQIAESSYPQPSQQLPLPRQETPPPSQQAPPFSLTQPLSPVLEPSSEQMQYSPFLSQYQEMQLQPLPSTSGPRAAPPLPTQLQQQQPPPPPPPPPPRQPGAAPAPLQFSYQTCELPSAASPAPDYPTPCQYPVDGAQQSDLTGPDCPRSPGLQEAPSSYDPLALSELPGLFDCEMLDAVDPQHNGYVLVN
Chain of Fibroblast growth factor receptor 1 (Homo sapiens) (P11362 22-822 limits assumed): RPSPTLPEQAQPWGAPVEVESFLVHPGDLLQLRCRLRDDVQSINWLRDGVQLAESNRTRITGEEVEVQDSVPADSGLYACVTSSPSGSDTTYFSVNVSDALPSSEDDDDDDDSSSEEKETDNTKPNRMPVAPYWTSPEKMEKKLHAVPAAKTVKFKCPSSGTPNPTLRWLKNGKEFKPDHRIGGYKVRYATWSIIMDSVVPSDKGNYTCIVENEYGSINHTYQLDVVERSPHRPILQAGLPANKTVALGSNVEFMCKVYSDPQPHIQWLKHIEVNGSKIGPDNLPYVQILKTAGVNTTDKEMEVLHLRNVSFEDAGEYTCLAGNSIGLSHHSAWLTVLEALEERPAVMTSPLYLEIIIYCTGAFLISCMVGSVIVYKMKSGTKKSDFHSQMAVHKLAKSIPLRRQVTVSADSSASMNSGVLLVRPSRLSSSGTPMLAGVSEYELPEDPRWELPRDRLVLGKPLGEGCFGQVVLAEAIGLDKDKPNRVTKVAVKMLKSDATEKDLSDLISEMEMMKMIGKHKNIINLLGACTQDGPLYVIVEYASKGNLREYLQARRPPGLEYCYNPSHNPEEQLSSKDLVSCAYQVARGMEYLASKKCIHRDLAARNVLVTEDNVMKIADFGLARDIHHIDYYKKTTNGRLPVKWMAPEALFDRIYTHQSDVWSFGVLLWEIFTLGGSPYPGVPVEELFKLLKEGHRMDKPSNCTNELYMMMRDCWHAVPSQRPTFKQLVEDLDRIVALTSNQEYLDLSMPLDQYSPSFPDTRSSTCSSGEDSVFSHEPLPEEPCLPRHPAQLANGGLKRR
Chain of Mitogen-activated protein kinase kinase kinase kinase 2 (Homo sapiens) (Q12851 whole entry, the tested form may be a part): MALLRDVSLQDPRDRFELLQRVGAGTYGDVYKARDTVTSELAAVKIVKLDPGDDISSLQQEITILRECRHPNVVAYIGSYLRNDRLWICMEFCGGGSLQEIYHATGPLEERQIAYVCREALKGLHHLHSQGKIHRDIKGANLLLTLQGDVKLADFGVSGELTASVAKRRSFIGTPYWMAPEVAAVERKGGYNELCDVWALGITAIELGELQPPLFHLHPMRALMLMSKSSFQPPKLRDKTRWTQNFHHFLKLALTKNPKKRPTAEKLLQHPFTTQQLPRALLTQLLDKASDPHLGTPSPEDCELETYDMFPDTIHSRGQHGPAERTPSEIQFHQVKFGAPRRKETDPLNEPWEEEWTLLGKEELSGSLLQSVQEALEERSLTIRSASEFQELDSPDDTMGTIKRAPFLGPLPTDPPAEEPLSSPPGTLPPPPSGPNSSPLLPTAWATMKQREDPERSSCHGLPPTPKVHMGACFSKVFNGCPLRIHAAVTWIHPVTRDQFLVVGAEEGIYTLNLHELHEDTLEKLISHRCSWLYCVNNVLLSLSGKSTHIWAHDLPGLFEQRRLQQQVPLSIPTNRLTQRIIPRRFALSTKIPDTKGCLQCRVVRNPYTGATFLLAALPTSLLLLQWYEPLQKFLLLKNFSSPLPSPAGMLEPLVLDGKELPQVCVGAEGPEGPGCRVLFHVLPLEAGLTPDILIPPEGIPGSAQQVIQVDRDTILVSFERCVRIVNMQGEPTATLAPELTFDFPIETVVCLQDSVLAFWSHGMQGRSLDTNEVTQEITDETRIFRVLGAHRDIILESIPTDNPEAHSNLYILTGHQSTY
Chain of Ribosomal protein S6 kinase alpha-5 (Homo sapiens) (O75582 whole entry, looked up, the tested form may be a part): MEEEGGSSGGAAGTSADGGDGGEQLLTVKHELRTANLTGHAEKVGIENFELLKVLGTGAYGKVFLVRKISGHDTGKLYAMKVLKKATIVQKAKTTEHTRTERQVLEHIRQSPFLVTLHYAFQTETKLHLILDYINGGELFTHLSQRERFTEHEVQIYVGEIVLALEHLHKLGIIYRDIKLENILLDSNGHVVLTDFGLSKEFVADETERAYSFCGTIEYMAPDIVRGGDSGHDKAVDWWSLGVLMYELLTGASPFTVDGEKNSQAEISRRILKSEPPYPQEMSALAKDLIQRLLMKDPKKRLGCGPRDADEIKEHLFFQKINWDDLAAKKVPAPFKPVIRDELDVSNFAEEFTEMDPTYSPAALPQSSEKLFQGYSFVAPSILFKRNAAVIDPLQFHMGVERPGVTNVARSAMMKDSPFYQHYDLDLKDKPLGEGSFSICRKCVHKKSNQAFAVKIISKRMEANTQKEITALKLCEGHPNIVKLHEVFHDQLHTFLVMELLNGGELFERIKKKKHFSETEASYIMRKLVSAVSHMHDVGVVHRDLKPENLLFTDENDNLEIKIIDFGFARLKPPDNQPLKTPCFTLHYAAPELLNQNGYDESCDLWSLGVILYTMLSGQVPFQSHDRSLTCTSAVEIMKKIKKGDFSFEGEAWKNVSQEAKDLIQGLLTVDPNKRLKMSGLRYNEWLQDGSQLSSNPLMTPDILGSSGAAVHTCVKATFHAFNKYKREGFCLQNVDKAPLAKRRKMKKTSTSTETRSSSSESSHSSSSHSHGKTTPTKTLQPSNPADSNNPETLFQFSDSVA
Chain of Tyrosine-protein kinase ZAP-70 (Homo sapiens) (P43403 whole entry, the tested form may be a part): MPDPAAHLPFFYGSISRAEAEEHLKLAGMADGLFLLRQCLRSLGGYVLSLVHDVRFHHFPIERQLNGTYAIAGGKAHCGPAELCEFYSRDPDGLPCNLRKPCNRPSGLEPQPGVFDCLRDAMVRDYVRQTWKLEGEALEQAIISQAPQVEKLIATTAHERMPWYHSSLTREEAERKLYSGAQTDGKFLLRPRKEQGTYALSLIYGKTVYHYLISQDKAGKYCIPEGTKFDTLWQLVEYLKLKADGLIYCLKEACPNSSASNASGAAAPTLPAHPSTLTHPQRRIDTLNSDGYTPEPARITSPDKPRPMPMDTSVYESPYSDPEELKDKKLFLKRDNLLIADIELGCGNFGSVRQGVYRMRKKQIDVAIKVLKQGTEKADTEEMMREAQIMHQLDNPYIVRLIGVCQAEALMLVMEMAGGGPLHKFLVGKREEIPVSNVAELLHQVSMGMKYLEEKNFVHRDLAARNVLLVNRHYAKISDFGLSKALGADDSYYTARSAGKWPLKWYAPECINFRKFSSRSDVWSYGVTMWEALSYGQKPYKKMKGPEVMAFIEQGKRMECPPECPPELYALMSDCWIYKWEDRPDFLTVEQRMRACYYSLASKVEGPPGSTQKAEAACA
Chain of Tyrosine-protein kinase HCK (Homo sapiens) (P08631 2-526 limits assumed): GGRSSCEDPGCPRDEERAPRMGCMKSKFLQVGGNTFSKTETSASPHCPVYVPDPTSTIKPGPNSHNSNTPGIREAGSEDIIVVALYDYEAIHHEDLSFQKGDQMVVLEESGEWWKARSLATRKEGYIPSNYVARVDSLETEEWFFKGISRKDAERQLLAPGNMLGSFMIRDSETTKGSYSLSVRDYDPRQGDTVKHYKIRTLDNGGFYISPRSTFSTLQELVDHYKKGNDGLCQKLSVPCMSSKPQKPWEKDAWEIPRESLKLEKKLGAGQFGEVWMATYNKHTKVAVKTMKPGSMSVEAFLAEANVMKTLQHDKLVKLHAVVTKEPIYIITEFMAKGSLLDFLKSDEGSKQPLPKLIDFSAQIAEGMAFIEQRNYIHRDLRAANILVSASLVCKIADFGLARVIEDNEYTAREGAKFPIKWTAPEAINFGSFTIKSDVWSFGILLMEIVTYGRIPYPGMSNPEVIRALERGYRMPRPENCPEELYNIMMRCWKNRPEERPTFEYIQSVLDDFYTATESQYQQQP
Chain of Casein kinase I isoform epsilon (Homo sapiens) (P49674 whole entry, looked up, the tested form may be a part, canonical isoform): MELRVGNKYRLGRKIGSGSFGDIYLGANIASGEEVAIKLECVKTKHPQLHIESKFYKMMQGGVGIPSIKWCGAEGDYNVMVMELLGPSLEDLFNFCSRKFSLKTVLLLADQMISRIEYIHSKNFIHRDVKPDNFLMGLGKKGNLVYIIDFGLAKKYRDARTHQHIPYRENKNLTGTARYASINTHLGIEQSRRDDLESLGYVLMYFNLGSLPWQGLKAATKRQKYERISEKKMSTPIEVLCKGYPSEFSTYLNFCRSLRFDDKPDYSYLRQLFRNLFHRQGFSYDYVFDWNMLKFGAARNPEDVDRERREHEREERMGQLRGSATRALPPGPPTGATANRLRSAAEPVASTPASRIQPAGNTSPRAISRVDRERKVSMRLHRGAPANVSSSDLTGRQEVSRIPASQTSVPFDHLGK

The inhibition is the change of the read-out against control, counted positive when it falls. On to `Cc1cc(C)c(CNC(=O)c2cc(Br)c3c(c2C)O[C@@](C)([C@H]2CC[C@H](N(C)C)CC2)O3)c(=O)[nH]1`, for which the inhibition was -7.4% in assay [1]; -1.3% in assay [2]; -2.5% in [3]; 1.4% in [4]; -6.2% in [5]; 2.6% in assay [6]. For the same compound, the inhibition in assay [7] was -0.2%; in [8] it was 3%; in [9] it was -5.3%; in assay [10] it was -1.6%; in assay [11] it was 4.7%; in assay [12], -4.9%. The inhibition was -5.6% in [13]; 0.9% in assay [14]; 1.5% in assay [15]; -0.5% in assay [16]; -6.1% in assay [17]; -7% in [18]. Further, the inhibition in assay [19] is 4.5%; in [20], -6.4%; in [21], -2%; in assay [22], -2.9%.

Consider `Cc1cc(C)c(CNC(=O)c2cc(Cl)c3c(c2C)O[C@@](C)([C@H]2CC[C@H](N(C)C)CC2)O3)c(=O)[nH]1` [VALEMETOSTAT], for which the inhibition was -5% in assay [1]; -4.5% in assay [2]; -4.2% in [3]; 0.4% in [4]; -5.4% in assay [5]; -0.2% in assay [6]. For the same compound, the inhibition is 0.2% in assay [7]; 2.8% in assay [8]; 4.3% in assay [9]; 0% in [10]; 24% in [11]; -3.5% in [12]. Besides, the inhibition is -5.8% in assay [13]; -2.6% in [14]; -2.2% in assay [15]; -1.9% in assay [16]; -4.4% in [17]; -5.3% in assay [18]. The inhibition is 2.3% in assay [19], -0.2% in [20], -2.9% in [21] and -4.3% in assay [22].
